What was measured:
WT mice = experiment: Paclitaxel-induced pain hypersensitivity in mice; assay type: in vivo, mouse
Protocol: To induce neuropathic pain, rats and mice were intraperitoneally injected with paclitaxel (2 mg/kg; TEVA Pharmaceuticals, North Wales, Pa.) every 2 days for a total of 4 injections (days 1, 3, 5 and 7; total dose, 8 mg/kg), as described previously (Polomano et al., 2001). Animals in the control group were intraperitoneally injected with the vehicle (Cremophor EL/ethanol, 1:1) on the same 4 days. The presence of tactile allodynia was confirmed 10 to 12 days after drug treatment. Intrathecal catheters were implanted in some paclitaxel-treated rats during isoflurane-induced anesthesia. […]
(§1) To assess the thermal sensitivity of rats, the were placed individually on the glass surface of a thermal testing apparatus (IITC Life Sciences, Woodland Hills, Calif.). […] The paw withdrawal latency was recorded with a timer, and the hindpaw was tested twice to obtain an average time. […] After the threshold temperature was recorded, the mice were immediately removed from the plate. The heat threshold measurement was repeated 30 min later, and the average of the 2 recorded temperatures was considered as the heat threshold. The cold threshold was measured by cooling the plate from 30° C. at a rate of 6° C./min until nocifensive behaviors were observed. […]

α2δ-1 = α2δ-1 expression, α2δ-1-GluN1 complex and synaptosomal proteins after paclitaxel; assay type: in vivo, rat; conditions: paclitaxel- vs vehicle-treated rats
Protocol: (§2) To induce neuropathic pain, rats and mice were intraperitoneally injected with paclitaxel (2 mg/kg; TEVA Pharmaceuticals, North Wales, Pa.) every 2 days for a total of 4 injections (days 1, 3, 5 and 7; total dose, 8 mg/kg), as described previously (Polomano et al., 2001). Animals in the control group were intraperitoneally injected with the vehicle (Cremophor EL/ethanol, 1:1) on the same 4 days. The presence of tactile allodynia was confirmed 10 to 12 days after drug treatment. Intrathecal catheters were implanted in some paclitaxel-treated rats during isoflurane-induced anesthesia. Briefly, a small puncture was made in the atlanto-occipital membrane of the cisterna magna and inserted a PE-10 catheter with the caudal tip reaching the lumbar enlargement of the spinal cord (Chen et al., 2014a; Xie et al., 2016).
Quantitative PCR: Rats were deeply anesthetized with 5% isoflurane, and the DRG and dorsal half of spinal cord tissues at the L5 and L6 levels were removed. Total RNA was extracted from the DRG and spinal cord tissues using TRIsure (Cat. #BIO-38032, Bioline, Taunton, Mass.). After treatment with RNase-free DNase (Cat. #79254, QIAGEN, Hilden, Germany), 500 ng RNA was used for reverse transcription with a RevertAid RT Reverse Transcription Kit (Cat. #K1619, Thermo Fisher Scientific, Waltham, Mass.). One μL of 5-times diluted cDNA was added to a 10-μL reaction volume with SYBR Green Real-Time PCR Mix (Cat. #A25780, Thermo Fisher Scientific). Real-time PCR was performed using a QuantStudio 7 Flex Real-Time PCR System (Applied Biosystems, Waltham, Mass.). The thermal cycling conditions used were: 1 cycle at 95° C. for 10 min, 40 cycles at 95° C. for 15 s, and 60° C. for 60 s. The following primers were used: α2δ-1 forward, […] (SEQ ID NO:60); α2δ-1 reverse, […] (SEQ ID NO:61); α2δ-2 forward, […] (SEQ ID NO:62); α2δ-2 reverse, […] (SEQ ID NO:63); α2δ-3 forward, […] (SEQ ID NO:64); α2δ-3 reverse, […] (SEQ ID NO:65); Gapdh forward, […] (SEQ ID NO:66); Gapdh reverse. […] (SEQ ID NO:67). Relative mRNA levels were calculated using the 2−ΔΔCT method and normalized to the Gapdh level in the same sample.
Coimmunoprecipitation using spinal cord tissue membrane extracts: Tissues from the dorsal halves of the rat spinal cord at the L5 and L6 levels were collected under isoflurane anesthesia and homogenized in ice-cold hypotonic buffer (20 mM Tris [pH 7.4], 1 mM CaCl2), 1 mM MgCl2, and protease inhibitors) for extracting membrane proteins. The nuclei and unbroken cells were removed by centrifugation at 300×g for 5 min, and the supernatant was centrifuged for 20 min at 21,000×g. The pellets were re-suspended and solubilized in immunoprecipitation buffer (50 mM Tris [pH7.4], 250 mM NaCl, 10% glycerol, 0.5% NP-40, 20 mM NaF, 1 mM Na3VO4, 10 mM N-ethylmaleimide, 1 mM phenylmethylsulfonyl fluoride, 2 mM benzamide, and protease inhibitors), and the soluble fraction was incubated at 4° C. overnight with Protein A/G beads ([…], Millipore, Darmstadt, Germany) prebound to mouse anti-GluN1 antibody (#75-272, 1:1000, NeuroMab, Davis, Calif.). Protein A/G beads prebound to mouse IgG were uses as the control. All samples were washed 3 times with immunoprecipitation buffer and then immunoblotted with rabbit anti-α2δ-1 (#ACC-015, 1:500, Alomone Labs, Jerusalem, Israel) and rabbit anti-GluN1 antibodies (#G8913, 1:1,000, Sigma-Aldrich, St. Louis, Mo.). The amount of the α2δ-1-GluN1 protein complex was calculated by normalizing the amount of α2δ-1 to that of GluN1 on the same gel. […]

[1] = target: presynaptic NMDARs of spinal lamina II neurons (Rattus norvegicus, UniProt P35439+Q00959+Q00960)
presynaptic NMDARs of spinal lamina II neurons, sequence (Q00959 20-1464 limits assumed, other chains not shown): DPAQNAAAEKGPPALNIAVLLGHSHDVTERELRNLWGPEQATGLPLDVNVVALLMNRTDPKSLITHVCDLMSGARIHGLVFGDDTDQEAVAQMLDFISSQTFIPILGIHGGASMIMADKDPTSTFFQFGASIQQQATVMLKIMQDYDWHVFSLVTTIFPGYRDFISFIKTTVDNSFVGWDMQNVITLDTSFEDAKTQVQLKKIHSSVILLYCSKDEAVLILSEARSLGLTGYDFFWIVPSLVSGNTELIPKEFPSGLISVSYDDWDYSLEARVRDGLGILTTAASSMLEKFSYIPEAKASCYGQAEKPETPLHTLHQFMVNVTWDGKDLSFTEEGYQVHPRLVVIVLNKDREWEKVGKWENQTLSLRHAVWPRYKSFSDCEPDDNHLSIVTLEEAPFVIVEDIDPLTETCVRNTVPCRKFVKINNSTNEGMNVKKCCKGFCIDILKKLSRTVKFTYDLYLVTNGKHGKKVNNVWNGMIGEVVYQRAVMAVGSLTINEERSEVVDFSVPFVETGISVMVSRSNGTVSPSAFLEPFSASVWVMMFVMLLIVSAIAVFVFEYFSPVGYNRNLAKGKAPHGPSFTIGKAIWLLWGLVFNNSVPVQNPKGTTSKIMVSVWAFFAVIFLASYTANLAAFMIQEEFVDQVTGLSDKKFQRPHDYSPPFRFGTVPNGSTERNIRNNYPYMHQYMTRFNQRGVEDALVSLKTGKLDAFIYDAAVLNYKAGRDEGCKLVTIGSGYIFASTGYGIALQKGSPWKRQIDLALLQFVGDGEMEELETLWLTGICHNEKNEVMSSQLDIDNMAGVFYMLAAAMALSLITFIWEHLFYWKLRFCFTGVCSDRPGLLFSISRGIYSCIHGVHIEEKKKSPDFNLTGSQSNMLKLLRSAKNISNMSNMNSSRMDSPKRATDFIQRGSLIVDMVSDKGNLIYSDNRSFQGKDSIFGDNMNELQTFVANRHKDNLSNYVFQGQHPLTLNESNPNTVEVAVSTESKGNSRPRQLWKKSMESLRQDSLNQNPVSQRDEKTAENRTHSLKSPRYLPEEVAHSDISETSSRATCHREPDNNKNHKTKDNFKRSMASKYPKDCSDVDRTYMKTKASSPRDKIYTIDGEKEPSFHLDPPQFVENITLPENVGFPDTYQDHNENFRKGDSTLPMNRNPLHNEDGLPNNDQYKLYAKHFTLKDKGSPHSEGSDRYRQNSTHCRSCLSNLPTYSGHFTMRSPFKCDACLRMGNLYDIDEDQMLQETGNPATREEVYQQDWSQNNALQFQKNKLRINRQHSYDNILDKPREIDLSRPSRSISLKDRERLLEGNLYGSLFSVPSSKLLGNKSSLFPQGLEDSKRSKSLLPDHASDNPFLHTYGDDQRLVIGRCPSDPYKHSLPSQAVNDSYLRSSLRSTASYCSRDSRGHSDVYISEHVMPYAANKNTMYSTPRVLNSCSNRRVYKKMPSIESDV
presynaptic NMDARs of spinal lamina II neurons, sequence (Q00960 27-1482, other chains not shown): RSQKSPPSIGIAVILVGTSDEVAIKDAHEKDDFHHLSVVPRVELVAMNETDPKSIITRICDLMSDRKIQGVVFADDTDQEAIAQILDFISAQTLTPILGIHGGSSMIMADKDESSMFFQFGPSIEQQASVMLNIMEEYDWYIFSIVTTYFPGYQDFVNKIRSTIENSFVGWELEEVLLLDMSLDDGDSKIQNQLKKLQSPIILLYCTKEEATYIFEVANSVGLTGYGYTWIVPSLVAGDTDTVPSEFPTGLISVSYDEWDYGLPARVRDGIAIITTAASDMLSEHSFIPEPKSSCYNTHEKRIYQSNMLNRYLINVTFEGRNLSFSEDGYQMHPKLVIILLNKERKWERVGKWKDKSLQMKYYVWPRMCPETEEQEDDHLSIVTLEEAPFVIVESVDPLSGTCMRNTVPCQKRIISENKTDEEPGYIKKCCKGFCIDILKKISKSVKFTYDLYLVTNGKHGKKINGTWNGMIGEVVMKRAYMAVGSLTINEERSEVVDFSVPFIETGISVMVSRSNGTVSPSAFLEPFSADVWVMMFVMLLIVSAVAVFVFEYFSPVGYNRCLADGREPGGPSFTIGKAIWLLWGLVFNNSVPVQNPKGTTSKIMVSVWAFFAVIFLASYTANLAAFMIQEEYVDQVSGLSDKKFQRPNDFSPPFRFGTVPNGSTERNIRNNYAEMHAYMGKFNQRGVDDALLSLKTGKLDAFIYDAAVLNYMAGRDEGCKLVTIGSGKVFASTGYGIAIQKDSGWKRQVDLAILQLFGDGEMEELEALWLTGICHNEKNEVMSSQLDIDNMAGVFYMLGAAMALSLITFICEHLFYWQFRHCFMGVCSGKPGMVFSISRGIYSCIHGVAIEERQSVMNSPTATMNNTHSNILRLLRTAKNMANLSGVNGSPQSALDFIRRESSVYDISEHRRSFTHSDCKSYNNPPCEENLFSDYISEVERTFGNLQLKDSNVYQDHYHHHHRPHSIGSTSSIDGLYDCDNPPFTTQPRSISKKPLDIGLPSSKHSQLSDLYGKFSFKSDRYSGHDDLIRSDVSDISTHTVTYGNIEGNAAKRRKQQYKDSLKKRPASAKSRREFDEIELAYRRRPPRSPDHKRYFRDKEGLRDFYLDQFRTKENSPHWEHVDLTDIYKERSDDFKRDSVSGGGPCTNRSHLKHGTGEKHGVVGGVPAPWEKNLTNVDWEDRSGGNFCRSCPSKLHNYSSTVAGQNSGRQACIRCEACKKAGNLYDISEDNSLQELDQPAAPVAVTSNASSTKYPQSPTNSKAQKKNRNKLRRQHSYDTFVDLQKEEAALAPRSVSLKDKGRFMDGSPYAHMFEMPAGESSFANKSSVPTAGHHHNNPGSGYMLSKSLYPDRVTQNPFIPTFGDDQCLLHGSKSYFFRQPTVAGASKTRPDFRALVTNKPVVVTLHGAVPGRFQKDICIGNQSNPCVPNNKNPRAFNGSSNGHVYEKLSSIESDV

paclitaxel-treated rats = experiment: Paclitaxel-induced pain hypersensitivity in rats; assay type: in vivo, rat; conditions: paclitaxel- vs vehicle-treated rats
Protocol: as §2
Behavioral assessment of nociception: To measure tactile allodynia, mice or rats were individually placed on a mesh floor within a suspended chamber. […]
To quantify the mechanical nociceptive threshold in rats, the paw pressure (Randall-Selitto) test was conducted on the left hindpaw using an analgesiometer (Ugo Basile, Varese, Italy). […] When the rat withdrew its paw or vocalized, the pedal was immediately released, and the withdrawal threshold was recorded (Chen et al., 2014a). […]
as §1

CC(=O)O[C@H]1C(=O)[C@@]2(C)[C@H]([C@H](OC(=O)c3ccccc3)[C@]3(O)C[C@H](OC(=O)[C@H](O)[C@@H](NC(=O)c4ccccc4)c4ccccc4)C(C)=C1C3(C)C)[C@]1(OC(C)=O)CO[C@@H]1C[C@@H]2O [paclitaxel]
duration of hypersensitivity after the last injection (WT mice): at least 10 days | pain hypersensitivity after systemic paclitaxel (WT mice): induced tactile allodynia and heat and cold hyperalgesia | mRNA level of α2δ-2 or α2δ-3 in the DRG and dorsal spinal cord (α2δ-1): similar | α2δ-1-GluN1 complex in the dorsal spinal cord (α2δ-1): significantly higher | α2δ-1 and GluN1 protein levels in spinal synaptosomes (α2δ-1): significantly higher | α2δ-1 mRNA levels in the DRG and dorsal spinal cord (α2δ-1): substantially higher | α2δ-1 protein levels in the DRG and spinal cord (α2δ-1): much higher | baseline amplitude of evoked monosynaptic EPSCs [1]: significantly larger | baseline frequency of mEPSCs in lamina II neurons [1]: significantly higher | paired-pulse ratio (PPR) in lamina II neurons [1]: significantly reduced | withdrawal thresholds to tactile, noxious pressure and noxious heat stimuli (paclitaxel-treated rats): lower withdrawal thresholds

Reference: patent US11787839B2, “Targeting α2δ-1-bound glutamate receptors for treating diseases and disorders” (Board of Regents, The University of Texas System, priority 2017, dated 2023)
